Source: patent US8124840B2, “Regulating metabolism by modifying the level of trehalose-6-phosphate” (Syngenta Mogen B.V., priority 1996, dated 2012)

Columns and labels:
hexokinase = experiment: Hexokinase assay on mouse hybridoma cell extract with/without trehalose-6-phosphate; type: biochemical; conditions: for V2 (ODU/min): hexokinase rate with T6P
Protocol: Hexokinase activity was measured in an assay containing 0.1 M Hepes-KOH pH 7.0, 4 mM MgCl2, 5 mM ATP, 0.2 mM NADP^+, 10 U/ml Creatine Phosphate Kinase (dissolved in 50% glycerol, 0.1% BSA, 50 mM Hepes pH 7.0), 3.5 mM Creatine Phosphate, 7 U/ml Glucose-6-Phosphate Dehydrogenase and 2 mM Glucose by measuring the increase in OD at 340 nm at 25° C.
When 2 mM Fructose was used instead of glucose as substrate for the hexokinase reaction, 3.8 U/ml Phosphoglucose Isomerase was included. Alternatively, a hexokinase assay as described by Gancedo et al. (1977) J. Biol. Chem. 252, 4443 was used.
A hexokinase assay was performed using glucose or fructose as substrate under conditions as described by Gancedo et al. (see above). Mouse hybridoma cells were subjected to osmotic shock by exposing a cell pellet to 20% sucrose, followed by distilled water. This crude protein extract was used in the hexokinase assay (50 μl) extract corresponding to ca. 200 μg protein).

wild-type tobacco plants = experiment: Trehalose accumulation in wild-type tobacco plants cultured with Validamycin A; type: in vivo; conditions: wild-type tobacco plants cultured with 10^−3M Validamycin A
Protocol: Validamycin A was isolated from Solacol, a commercial agricultural formulation (Takeda Chem. Indust., Tokyo) as described by Kendall et al. (1990) Phytochemistry 29, 2525. The procedure involves ion-exchange chromatography (QAE-Sephadex A-25 (Pharmacia), bed vol. 10 ml, equilibration buffer 0.2 mM Na-Pi pH 7) from a 3% agricultural formulation of Solacol. Loading 1 ml of Solacol on the column and eluting with water in 7 fractions, practically all Validamycin was recovered in fraction 4. Based on a 100% recovery, using this procedure, the concentration of Validamycin A was adjusted to 1.10^-3 M in MS-medium, for use in trehalose accumulation tests. Alternatively, Validamycin A and B may be purified directly from Streptomyces hygroscopicus var. limoneus, as described by Iwasa et al. (1971) J. Antibiot. 24, 119, the content of which is incorporated herein by reference. Carbohydrates were determined quantitatively by anion exchange chromatography with pulsed electrochemical detection. […] Samples (25 μl) were analyzed on a Dionex DX-300 liquid chromatograph equipped with a 4×250 mm Dionex 35391 carbopac PA-1 column and a 4×50 mm Dionex 43096 carbopac PA-1 precolumn. […] Sugars were detected with a pulsed electrochemical detector (Dionex, PED). […] Trehalose accumulation was never detected in any control plants cultured without inhibitor. […]

potato microtubers = experiment: Trehalose accumulation in potato microtubers induced on medium with Validamycin A; type: in vivo, Solanum tuberosum cv. Kardal; conditions: for Trehalose (% fresh weight): +Validamycin A 10^−3 M
Protocol: Stem segments of in vitro potato plants harbouring an auxiliary meristem were transferred to micro-tuber inducing medium. Micro-tuber inducing medium contains 1 X MS-salts supplemented with R3 vitamins, 0.5 g/l MES (final pH=5.8, adjusted with KOH) and solidified with 8 g/l Daichin agar, 60 g/l sucrose and 2.5 mg/l kinetin. After 3 to 5 weeks of growth in the dark at 24° C., micro-tubers were formed.
Validamycin A was isolated from Solacol, a commercial agricultural formulation (Takeda Chem. Indust., Tokyo) as described by Kendall et al. (1990) Phytochemistry 29, 2525. The procedure involves ion-exchange chromatography (QAE-Sephadex A-25 (Pharmacia), bed vol. 10 ml, equilibration buffer 0.2 mM Na-Pi pH 7) from a 3% agricultural formulation of Solacol. Loading 1 ml of Solacol on the column and eluting with water in 7 fractions, practically all Validamycin was recovered in fraction 4. Based on a 100% recovery, using this procedure, the concentration of Validamycin A was adjusted to 1.10^−3 M in MS-medium, for use in trehalose accumulation tests. Alternatively, Validamycin A and B may be purified directly from Streptomyces hygroscopicus var. limoneus, as described by Iwasa et al. (1971) J. Antibiot. 24, 119, the content of which is incorporated herein by reference.
Carbohydrates were determined quantitatively by anion exchange chromatography with pulsed electrochemical detection. Extracts were prepared by extracting homogenized frozen material with 80% EtOH. After extraction for 15 minutes at room temperature, the soluble fraction is evaporated and dissolved in distilled water. Samples (25 μl) were analyzed on a Dionex DX-300 liquid chromatograph equipped with a 4×250 mm Dionex 35391 carbopac PA-1 column and a 4×50 mm Dionex 43096 carbopac PA-1 precolumn. Elution was with 100 mM NaOH at 1 ml/min followed by a NaAc gradient. Sugars were detected with a pulsed electrochemical detector (Dionex, PED). Commercially available carbohydrates (Sigma) were used as a standard.
Potato Solanum tuberosum cv. […] The presence of small amounts of trehalose in wild-type plants indicates the presence of a functional trehalose biosynthetic pathway.
Evidence for the presence of a trehalose biosynthesis pathway in tobacco was obtained by culturing wild-type plants in the presence of 10^−3M of the trehalase inhibitor Validamycin A. The treated plants accumulated very small amounts of trehalose, up to 0.0021% (fw). Trehalose accumulation was never detected in any control plants cultured without inhibitor. Similar data were obtained with wild-type microtubers cultured in the presence of Validamycin A. Ten out of seventeen lines accumulated on average 0.001% trehalose (fw)/(Table 4).

[1] = system: trehalases from various sources; conditions: cited from earlier work
α- or β-glycohydrolase = conditions: except for trehalase; cited from earlier work
[2] = substrate Fructose 20 mM, T6P 0.23
[3] = substrate Fructose 20 mM, T6P 0.43
[4] = substrate Fructose 20 mM, T6P 0.83
[5] = substrate Fructose 20 mM, T6P 1.67
[6] = substrate Glucose 2 mM, T6P 0.83
[7] = substrate Glucose 20 mM, T6P 0.83
[8] = substrate Glucose 100 mM, T6P 0.83

O=P(O)(O)OC[C@H]1O[C@H](O[C@H]2O[C@H](CO)[C@@H](O)[C@H](O)[C@H]2O)[C@H](O)[C@@H](O)[C@@H]1O [T-6-P, trehalose-6-phosphate]
Hexokinase activity in mouse cell extracts (hexokinase; crude extract of mouse hybridoma cells): is inhibited
V2 (ODU/min) (hexokinase; [2]): 0.0205 ODU/min
V2 (ODU/min) (hexokinase; [3]): 0.0197 ODU/min
V2 (ODU/min) (hexokinase; [4]): 0.0151 ODU/min
V2 (ODU/min) (hexokinase; [5]): 0.0133 ODU/min
V2 (ODU/min) (hexokinase; [6]): 0.0133 ODU/min
V2 (ODU/min) (hexokinase; [7]): 0.0141 ODU/min
V2 (ODU/min) (hexokinase; [8]): 0.0125 ODU/min
Efficiency of hexokinase inhibition, glucose versus fructose as substrate (hexokinase; mouse cell extracts): No difference
Inhibition (%) (hexokinase; [2]): 1%
Inhibition (%) (hexokinase; [3]): 26%
Inhibition (%) (hexokinase; [4]): 35%
Inhibition (%) (hexokinase; [5]): 46%
Inhibition (%) (hexokinase; [6]): 35%
Inhibition (%) (hexokinase; [7]): 35%
Inhibition (%) (hexokinase; [8]): 34%

OCC1=C[C@@H](N[C@H]2C[C@H](CO)[C@@H](O[C@H]3O[C@@H](CO)[C@H](O)[C@@H](O)[C@@H]3O)[C@H](O)[C@H]2O)[C@H](O)[C@@H](O)[C@@H]1O [Validamycin A]
Trehalose accumulation (wild-type tobacco plants): up to 0.0021 % (fw)
Trehalose (% fresh weight) (potato microtubers; microtubers of pMOG845 line 845-2): 0.016 % fresh weight
Trehalose (% fresh weight) (potato microtubers; microtubers of pMOG845 line 845-8): 0.051 % fresh weight
Trehalose (% fresh weight) (potato microtubers; microtubers of pMOG845 line 845-11): 0.015 % fresh weight
Trehalose (% fresh weight) (potato microtubers; microtubers of pMOG845 line 845-13): 0.011 % fresh weight
Trehalose (% fresh weight) (potato microtubers; microtubers of pMOG845 line 845-22): 0.112 % fresh weight
Trehalose (% fresh weight) (potato microtubers; microtubers of pMOG845 line 845-25): 0.002 % fresh weight
Trehalose (% fresh weight) (potato microtubers; microtubers of pMOG845 line 845-28): 0.109 % fresh weight
Trehalose (% fresh weight) (potato microtubers; microtubers of wild type Kardal): 0.001 % fresh weight
Trehalose level in microtubers versus medium without Validamycin A (potato microtubers; transgenic (pMOG845) and wild-type microtubers, 10^−3 M Validamycin A): elevated levels of trehalose
Trehalose accumulation, average (potato microtubers; wild-type microtubers cultured with Validamycin A, ten out of seventeen lines): 0.001 % trehalose (fw)
IC50 [1]: 0.1 to 1000 nM
Inhibition of α- or β-glycohydrolase activity (α- or β-glycohydrolase): does not significantly inhibit
